In patent USRE48335E1, “Polymyxin derivatives as antimicrobial compounds” (priority 2014, dated 2020):
Converted amounts (≈) assume the structure as drawn. Positions of bridges follow the written chain, without caps; N, C: chain ends. Non-standard residues stand in square brackets, D forms with d. Residues, ends and D or L forms follow the SMILES beside them. *: point of attachment. X19 = Cc1cc(Cl)cc(C(=O)*)c1; Decanoyl = CCCCCCCCCC(=O)*; Octanoyl = CCCCCCCC(=O)*; Dab = NCC[C@H](N)C(=O)O; Abu = CC[C@H](N)C(=O)O; Dap = NC[C@H](N)C(=O)O; Hexanoyl = CCCCCC(=O)*; Aib = CC(C)(N)C(=O)O

Legend:
P. aeruginosa ATCC 27853 = experiment: In vivo efficacy in mouse blood infection model (neutropenic Swiss mice); settings: compound, free base 4 mg/kg intravenously 2 h after inoculation, blood at 4 h
Protocol: P. aeruginosa ATCC 27853, A. baumannii ATCC 19606 and K. pneumoniae FADDI-KP032 were subcultured on nutrient agar plates. One colony of each bacterial strain was dispersed in 10-mL CAMHB and incubated overnight. On day 2, an aliquot (0.2 mL) of each overnight culture suspension was dispersed in 20-mL CAMHB and incubated for 1.5-2.5 h for production of early log-phase growth bacterial culture. The bacteria in the early log-phase growth suspension were concentrated by centrifugation (3,220 g for 10 min) and re-suspended in sterile 0.9% saline for inoculation into mice. The bacterial cell concentration (colony forming unit [CFU]/mL) in saline was estimated by determining the optical density (OD) of the suspension at 600 nm, and confirmed by plating the suspension on nutrient agar plates. Swiss mice (22 to 28 g) were rendered neutropenic by injecting two doses of cyclophosphamide intraperitoneally, −4 day (150 mg/kg) and −1 day (100 mg/kg) prior to inoculation. Bloodstream infection was established by injecting intravenously 50 μL of early log-phase bacterial suspension (10^8-10^9 CFU/mL). The exact injection volume for each bacterial suspension was calculated based upon the OD value of the bacterial suspension and the desired inoculum for each isolate.
Solutions for administration of colistin, polymyxin B or the compounds were prepared at a concentration of 1 mg (free base) per mL in sterile 0.9% saline. At 2 h after inoculation, a mouse in the treatment groups was injected intravenously with one of the above solutions at 4 μL/g body weight (BW) (i.e. free base 4 mg/kg BW), while the same volume of saline was injected into the control mice. At 0 h or at 4 h after the administration of antibacterial drug or saline (control), animals were euthanised by inhalation of overdose isoflurane. The skin on the chest and fore-paws of each animal was thoroughly cleansed with 70% ethanol and Betadine®. The blood was collected via cardiac puncture using a 1-mL syringe rinsed with heparin (5,000 IU/mL), diluted serially in sterile 0.9% saline and plated on nutrient agar plates using a spiral plater.
The agar plates were incubated at 37° C. overnight. The bacterial colonies on the plate were counted and CFU/mL of the blood was calculated. The log10 CFU/mL of blood in each mouse was calculated. The in vivo activity of the compounds against the bacteria was calculated as the difference of the log10 CFU/mL values between the treated mice and the control mice at 4 h (Δ log=log10 (treated)CFU/mL−log10 (control)CFU/mL).
Any compound showing a decrease in bacterial loading (Δ log) of ≥2 at 4 h is considered to have good in vivo efficacy in this initial screening model.

Acinetobacter baumannii = test system: Acinetobacter baumannii
Outline: (§1)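 Broth microdilution, CAMHB, per CLSI M100-S18; compounds as TFA salts; polymyxin B (sulphate) control; read-out MIC.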

Pseudomonas aeruginosa = test system: Pseudomonas aeruginosa
Outline: as §1

Enterobacter cloacae = test system: Enterobacter cloacae
Outline: as §1

Klebsiella pneumoniae = test system: Klebsiella pneumoniae
Outline: as §1

Structure (SMILES)	MIC (Acinetobacter baumannii) [µg/mL]	MIC (Pseudomonas aeruginosa) [µg/mL]	MIC (Klebsiella pneumoniae) [µg/mL]	Δ log (Treated-Control at 4 h) (P. aeruginosa ATCC 27853) [log10 CFU/mL]	Minimum inhibitory concentration, Ab A ATCC 17978 (Acinetobacter baumannii) [µg/mL]	Minimum inhibitory concentration, Ab ATCC 19606 (Acinetobacter baumannii) [µg/mL]	Minimum inhibitory concentration, Ab FADDI-AB034 (Acinetobacter baumannii) [µg/mL]	Minimum inhibitory concentration, Pa ATCC 27853 (Pseudomonas aeruginosa) [µg/mL]	Minimum inhibitory concentration, Pa FADDI-PA022 (Pseudomonas aeruginosa) [µg/mL]	Minimum inhibitory concentration, Pa FADDI-PA025 (Pseudomonas aeruginosa) [µg/mL]	Minimum inhibitory concentration, Ec FADDI-EC001 (Enterobacter cloacae) [µg/mL]	Minimum inhibitory concentration, Ec FADDI-EC003 (Enterobacter cloacae) [µg/mL]	Minimum inhibitory concentration, Ec FADDI-EC006 (Enterobacter cloacae) [µg/mL]	also measured
CCCCCC(=O)N[C@@H](CCN)C(=O)N[C@H](C(=O)N[C@@H](CCN)C(=O)N[C@H]1CCNC(=O)[C@H]([C@@H](C)O)NC(=O)[C@H](CCN)NC(=O)[C@H](CCN)NC(=O)[C@H]([C@@H](C)O)NC(=O)[C@@H](CC(C)C)NC(=O)[C@H](CCN)NC1=O)[C@@H](C)O [Compound 26] (Hexanoyl-[Dab]T[Dab][Dab][Dab][dL]T[Dab][Dab]T; lactam 4-C)	16 (≈ 14.3 µM)	0.5 (≈ 0.448 µM)	2 (≈ 1.79 µM)	−0.04	8 (≈ 7.17 µM)	16 (≈ 14.3 µM)	16 (≈ 14.3 µM)	0.5 (≈ 0.448 µM)	2 (≈ 1.79 µM)	>32	0.5 (≈ 0.448 µM)	0.5 (≈ 0.448 µM)	1 (≈ 0.897 µM)	–
CC[C@@H]1NC(=O)[C@@H](CC(C)C)NC(=O)[C@H](CCN)NC(=O)[C@@H](NC(=O)[C@H](CN)NC(=O)[C@@H](NC(=O)[C@H](CCN)NC(=O)c2cc(C)cc(Cl)c2)[C@@H](C)O)CCNC(=O)[C@H]([C@@H](C)O)NC(=O)[C@H](CCN)NC(=O)[C@H](CCN)NC1=O [Compound 114] (X19-[Dab]T[Dap][Dab][Dab][dL][Abu][Dab][Dab]T; lactam 4-C)	2 (≈ 1.75 µM)	0.5 (≈ 0.439 µM)	0.25 (≈ 0.219 µM)	−2.57	0.5 (≈ 0.439 µM)	2 (≈ 1.75 µM)	0.5 (≈ 0.439 µM)	0.5 (≈ 0.439 µM)	1 (≈ 0.877 µM)	1 (≈ 0.877 µM)	0.25 (≈ 0.219 µM)	0.25 (≈ 0.219 µM)	0.25 (≈ 0.219 µM)	–
CCCCCCCC(=O)N[C@@H](CCN)C(=O)N[C@H](C(=O)N[C@@H](CN)C(=O)N[C@H]1CCNC(=O)[C@H]([C@@H](C)O)NC(=O)[C@H](CCN)NC(=O)[C@H](CCN)NC(=O)C(C)(C)NC(=O)[C@@H](Cc2ccccc2)NC(=O)[C@H](CCN)NC1=O)[C@@H](C)O [Compound 140] (Octanoyl-[Dab]T[Dap][Dab][Dab][dF][Aib][Dab][Dab]T; lactam 4-C)	2 (≈ 1.74 µM)	1 (≈ 0.872 µM)	0.25 (≈ 0.218 µM)	−3.27	–	–	–	–	–	–	–	–	–	Minimum inhibitory concentration (MIC), Ab ATCC 17978 (Acinetobacter baumannii): 0.5 µg/mL (≈ 0.436 µM); Minimum inhibitory concentration (MIC), Ab ATCC 19606 (Acinetobacter baumannii): 2 µg/mL (≈ 1.74 µM); Minimum inhibitory concentration (MIC), Ab FADDI-AB034 (Acinetobacter baumannii): 1 µg/mL (≈ 0.872 µM); Minimum inhibitory concentration (MIC), Pa ATCC 27853 (Pseudomonas aeruginosa): 1 µg/mL (≈ 0.872 µM); Minimum inhibitory concentration (MIC), Pa FADDI-PA022 (Pseudomonas aeruginosa): 1 µg/mL (≈ 0.872 µM); Minimum inhibitory concentration (MIC), Pa FADDI-PA025 (Pseudomonas aeruginosa): 4 µg/mL (≈ 3.49 µM); Minimum inhibitory concentration (MIC), Ec FADDI-EC001 (Enterobacter cloacae): 0.5 µg/mL (≈ 0.436 µM); Minimum inhibitory concentration (MIC), Ec FADDI-EC003 (Enterobacter cloacae): 0.25 µg/mL (≈ 0.218 µM); Minimum inhibitory concentration (MIC), Ec FADDI-EC006 (Enterobacter cloacae): 1 µg/mL (≈ 0.872 µM)
CCCCCCCCCC(=O)N[C@@H](CCN)C(=O)N[C@H](C(=O)N[C@@H](CCN)C(=O)N[C@H]1CCNC(=O)[C@H]([C@@H](C)O)NC(=O)[C@H](CCN)NC(=O)[C@H](CCN)NC(=O)[C@H](C)NC(=O)[C@@H](CC(C)C)NC(=O)[C@H](CCN)NC1=O)[C@@H](C)O [Compound 40] (Decanoyl-[Dab]T[Dab][Dab][Dab][dL]A[Dab][Dab]T; lactam 4-C)	–	–	–	–	0.5 (≈ 0.438 µM)	0.5 (≈ 0.438 µM)	0.5 (≈ 0.438 µM)	0.5 (≈ 0.438 µM)	2 (≈ 1.75 µM)	4 (≈ 3.5 µM)	0.25 (≈ 0.219 µM)	0.25 (≈ 0.219 µM)	0.25 (≈ 0.219 µM)	–

Further lines, with some results ahead:

MIC (Acinetobacter baumannii) [µg/mL]	MIC (Pseudomonas aeruginosa) [µg/mL]	MIC (Klebsiella pneumoniae) [µg/mL]	Structure (SMILES)	Δ log (Treated-Control at 4 h) (P. aeruginosa ATCC 27853) [log10 CFU/mL]	Minimum inhibitory concentration, Ab A ATCC 17978 (Acinetobacter baumannii) [µg/mL]	Minimum inhibitory concentration, Ab ATCC 19606 (Acinetobacter baumannii) [µg/mL]	Minimum inhibitory concentration, Ab FADDI-AB034 (Acinetobacter baumannii) [µg/mL]	Minimum inhibitory concentration, Pa ATCC 27853 (Pseudomonas aeruginosa) [µg/mL]	Minimum inhibitory concentration, Pa FADDI-PA022 (Pseudomonas aeruginosa) [µg/mL]	Minimum inhibitory concentration, Pa FADDI-PA025 (Pseudomonas aeruginosa) [µg/mL]	Minimum inhibitory concentration, Ec FADDI-EC001 (Enterobacter cloacae) [µg/mL]	Minimum inhibitory concentration, Ec FADDI-EC003 (Enterobacter cloacae) [µg/mL]	Minimum inhibitory concentration, Ec FADDI-EC006 (Enterobacter cloacae) [µg/mL]	also measured
<0.125	2 (≈ 1.77 µM)	<0.125	CCCCCCCC(=O)N[C@@H](CCN)C(=O)N[C@H](C(=O)N[C@H](CO)C(=O)N[C@H]1CCNC(=O)[C@H]([C@@H](C)O)NC(=O)[C@H](CCN)NC(=O)[C@H](CCN)NC(=O)[C@H](C(C)C)NC(=O)[C@@H](CC(C)C)NC(=O)[C@H](CCN)NC1=O)[C@@H](C)O [Compound 5] (Octanoyl-[Dab]T[dS][Dab][Dab][dL]V[Dab][Dab]T; lactam 4-C)	–	<0.125	<0.125	0.25 (≈ 0.222 µM)	2 (≈ 1.77 µM)	4 (≈ 3.54 µM)	16 (≈ 14.2 µM)	0.25 (≈ 0.222 µM)	<0.125	0.25 (≈ 0.222 µM)	–
1 (≈ 0.896 µM)	>32	0.5 (≈ 0.448 µM)	CCCCCCCC(=O)N[C@@H](CCN)C(=O)N[C@H](C(=O)N[C@H](CO)C(=O)N[C@H]1CCNC(=O)[C@H]([C@@H](C)O)NC(=O)[C@H](CCN)NC(=O)[C@H](CCN)NC(=O)[C@H](CO)NC(=O)[C@@H](CC(C)C)NC(=O)[C@H](CCN)NC1=O)[C@@H](C)O [Compound 6] (Octanoyl-[Dab]T[dS][Dab][Dab][dL]S[Dab][Dab]T; lactam 4-C)	–	1 (≈ 0.896 µM)	1 (≈ 0.896 µM)	0.5 (≈ 0.448 µM)	>32	4 (≈ 3.58 µM)	>32	0.25 (≈ 0.224 µM)	0.25 (≈ 0.224 µM)	0.25 (≈ 0.224 µM)	–
0.5 (≈ 0.454 µM)	8 (≈ 7.27 µM)	0.5 (≈ 0.454 µM)	CCCCCCCC(=O)N[C@@H](CCN)C(=O)N[C@H](C(=O)N[C@H](CO)C(=O)N[C@H]1CCNC(=O)[C@H]([C@@H](C)O)NC(=O)[C@H](CCN)NC(=O)[C@H](CCN)NC(=O)[C@H](C)NC(=O)[C@@H](CC(C)C)NC(=O)[C@H](CCN)NC1=O)[C@@H](C)O [Compound 2] (Octanoyl-[Dab]T[dS][Dab][Dab][dL]A[Dab][Dab]T; lactam 4-C)	–	0.5 (≈ 0.454 µM)	0.5 (≈ 0.454 µM)	0.5 (≈ 0.454 µM)	8 (≈ 7.27 µM)	8 (≈ 7.27 µM)	>32	<0.125	<0.125	0.5 (≈ 0.454 µM)	–
0.25 (≈ 0.215 µM)	4 (≈ 3.44 µM)	<0.125	CCCCCCCC(=O)N[C@@H](CCN)C(=O)N[C@H](C(=O)N[C@H](CO)C(=O)N[C@H]1CCNC(=O)[C@H]([C@@H](C)O)NC(=O)[C@H](CCN)NC(=O)[C@H](CCN)NC(=O)[C@H]([C@@H](C)O)NC(=O)[C@@H](Cc2ccccc2)NC(=O)[C@H](CCN)NC1=O)[C@@H](C)O [Compound 3] (Octanoyl-[Dab]T[dS][Dab][Dab][dF]T[Dab][Dab]T; lactam 4-C)	–	<0.125	0.25 (≈ 0.215 µM)	<0.125	4 (≈ 3.44 µM)	4 (≈ 3.44 µM)	>32	0.5 (≈ 0.429 µM)	<0.125	0.25 (≈ 0.215 µM)	–
